Assay results taken from patent US20260184710A1, “CASITAS B-LINEAGE LYMPHOMA PROTOONCOGENE B (CBL-B) DEGRADING COMPOUNDS AND ASSOCIATED METHODS OF USE” (Arvinas Operations, Inc., priority 2022, published 2026).

Biological target: T1, Cbl-b (Homo sapiens, UniProt Q13191)
T1 construct: Cbl-b-HiBit KI Jurkat Cells were purchased from Promega; host or cells: Cbl-b-HiBiT knock-in Jurkat cells
Assay: Cbl-b Degradation Method B (Nano-Glo HiBiT lytic detection)
Format: cell-based
Conditions: Cbl-b-HiBit KI Jurkat Cells, incubated at least 6-24 hours; for DC50: half maximal degradation, read-out: Cbl-b Degredation Method B IC50; for Dmax: maximum degradation observed, read-out: Cbl-b Degredation Method B Dmax (%)
Summary of the method: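 Cbl-b-HiBiT knock-in Jurkat cells (20,000/well) were treated after ~24 h plating with an 11-point 1:3 series for 6-24 h at 37° C. Remaining Cbl-b measured by Nano-Glo HiBiT lytic luminescence. DC50 and Dmax expressed as % of control.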

T1 sequence (Q13191 whole entry): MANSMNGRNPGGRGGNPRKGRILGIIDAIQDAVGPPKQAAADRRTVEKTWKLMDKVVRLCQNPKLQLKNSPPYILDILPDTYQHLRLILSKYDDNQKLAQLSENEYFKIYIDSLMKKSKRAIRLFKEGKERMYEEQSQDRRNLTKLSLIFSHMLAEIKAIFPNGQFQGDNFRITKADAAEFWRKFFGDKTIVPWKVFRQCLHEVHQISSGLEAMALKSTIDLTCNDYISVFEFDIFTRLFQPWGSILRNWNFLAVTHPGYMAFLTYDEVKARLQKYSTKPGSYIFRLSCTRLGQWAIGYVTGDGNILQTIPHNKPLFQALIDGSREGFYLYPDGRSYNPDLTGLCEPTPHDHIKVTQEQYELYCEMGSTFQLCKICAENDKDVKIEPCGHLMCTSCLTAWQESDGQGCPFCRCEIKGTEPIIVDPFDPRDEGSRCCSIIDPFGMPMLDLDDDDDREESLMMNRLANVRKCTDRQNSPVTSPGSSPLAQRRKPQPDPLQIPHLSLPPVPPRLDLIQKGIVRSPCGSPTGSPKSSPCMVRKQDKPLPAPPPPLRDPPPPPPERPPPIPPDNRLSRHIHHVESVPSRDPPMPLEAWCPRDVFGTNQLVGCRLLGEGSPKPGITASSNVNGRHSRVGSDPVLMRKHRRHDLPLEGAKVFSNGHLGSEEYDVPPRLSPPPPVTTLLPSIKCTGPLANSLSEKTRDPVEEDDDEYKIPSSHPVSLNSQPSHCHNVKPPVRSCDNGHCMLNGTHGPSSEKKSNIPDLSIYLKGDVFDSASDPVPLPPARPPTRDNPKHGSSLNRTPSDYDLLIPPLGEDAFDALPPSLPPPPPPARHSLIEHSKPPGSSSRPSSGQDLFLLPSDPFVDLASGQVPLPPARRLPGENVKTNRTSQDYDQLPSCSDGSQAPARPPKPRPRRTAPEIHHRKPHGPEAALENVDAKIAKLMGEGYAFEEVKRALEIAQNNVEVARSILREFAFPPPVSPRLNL

DC50	Dmax	SMILES
< 5 nM	35 to 70%	Cc1cc(N2CCC(CN3CCC4(CC3)CN(c3cc5c(c(C(F)(F)F)c3)CN(c3cccc(C6(Cc7nncn7C)CC6)c3)C5=O)C4)CC2)c(F)c2c1C(=O)N(C1CCC(=O)NC1=O)C2 (centres unmarked) [Example 191, 3-{4-fluoro-7-methyl-5-[4-({2-[2-(3-{1-[(4-methyl-4H-1,2,4-triazol-3-yl)methyl]cyclopropyl}phenyl)-3-oxo-7-(trifluoromethyl)-2,3-dihydro-1H-isoindol-5-yl]-2,7-diazaspiro[3.5]nonan-7-yl}methyl)piperidin-1-yl]-1-oxo-2,3-dihydro-1H-isoindol-2-yl}piperidine-2,6-dione]
> 500 nM		COc1cc(N2CCN(CC3CCN(Cc4cc5c(c(C(F)(F)F)c4)CN(c4cccc(C6(Cc7nncn7C)COC6)c4)C5=O)CC3)CC2)cc2c1C(=O)N(C1CCC(=O)NC1=O)C2=O (centres unmarked) [Example 51, 2-(2,6-dioxopiperidin-3-yl)-4-methoxy-6-{4-[(1-{[2-(3-{3-[(4-methyl-4H-1,2,4-triazol-3-yl)methyl]oxetan-3-yl}phenyl)-3-oxo-7-(trifluoromethyl)-2,3-dihydro-1H-isoindol-5-yl]methyl}piperidin-4-yl)methyl]piperazin-1-yl}-2,3-dihydro-1H-isoindole-1,3-dione]
> 500 nM		Cn1cnnc1CC1(c2cccc(N3Cc4c(cc(CN5CCC6(CC5)CCN(CC5CCN(c7ccc8c(c7)C(=O)N(C7CCC(=O)NC7=O)C8=O)CC5)CC6)cc4C(F)(F)F)C3=O)c2)COC1 (centres unmarked) [Example 45, 2-(2,6-dioxopiperidin-3-yl)-5-{4-[(9-{[2-(3-{3-[(4-methyl-4H-1,2,4-triazol-3-yl)methyl]oxetan-3-yl}phenyl)-3-oxo-7-(trifluoromethyl)-2,3-dihydro-1H-isoindol-5-yl]methyl}-3,9-diazaspiro[5.5]undecan-3-yl)methyl]piperidin-1-yl}-2,3-dihydro-1H-isoindole-1,3-dione]
> 500 nM		CC1c2nc(N3CCC(O[C@H]4CC[C@H](CN5CCN(Cc6cc7c(c(C(F)(F)F)c6)CN(c6cccc(C8(Cc9nncn9C)CCOCC8)c6)C7=O)CC5)CC4)CC3)ccc2C(=O)N1C1CCC(=O)NC1=O (mixture of isomers) [Example 233, rac-3-[7-methyl-5-oxo-2-(4-{[(1r,4r)-4-[(4-{[2-(3-{4-[(4-methyl-4H-1,2,4-triazol-3-yl)methyl]oxan-4-yl}phenyl)-3-oxo-7-(trifluoromethyl)-2,3-dihydro-1H-isoindol-5-yl]methyl}piperazin-1-yl)methyl]cyclohexyl]oxy}piperidin-1-yl)-5H,6H,7H-pyrrolo[3,4-b]pyridin-6-yl]piperidine-2,6-dione]
> 500 nM		Cn1cnnc1CC1(c2cccc(N3Cc4c(cc(CN5CC6(C5)CN(CC5CCN(c7ccc8c(c7)C(=O)N(C7CCC(=O)NC7=O)C8=O)CC5)C6)cc4C(F)(F)F)C3=O)c2)COC1 (centres unmarked) [Example 68, 2-(2,6-dioxopiperidin-3-yl)-5-{4-[(6-{[2-(3-{3-[(4-methyl-4H-1,2,4-triazol-3-yl)methyl]oxetan-3-yl}phenyl)-3-oxo-7-(trifluoromethyl)-2,3-dihydro-1H-isoindol-5-yl]methyl}-2,6-diazaspiro[3.3]heptan-2-yl)methyl]piperidin-1-yl}-2,3-dihydro-1H-isoindole-1,3-dione]
> 500 nM		Cn1cnnc1C[C@]1(c2cccc(N3Cc4c(cc(CN5CCN(C[C@H]6CC[C@H](OC7CCN(c8ccnc(C(=O)NC9CCC(=O)NC9=O)c8)CC7)CC6)CC5)cc4C(F)(F)F)C3=O)c2)C[C@H](C#N)C1 (some centres unmarked) [Example 200, N-(2,6-dioxopiperidin-3-yl)-4-(4-{[(1r,4r)-4-({4-[(3-oxo-2-{3-[(1r,3r)-3-cyano-1-[(4-methyl-4H-1,2,4-triazol-3-yl)methyl]cyclobutyl]phenyl}-7-(trifluoromethyl)-2,3-dihydro-1H-isoindol-5-yl)methyl]piperazin-1-yl}methyl)cyclohexyl]oxy}piperidin-1-yl)pyridine-2-carboxamide]
> 500 nM		Cn1cnnc1CC1(c2cccc(-n3cc4c(C(F)(F)F)cc(CN5CCC(CN6CCC(CN7CCN(c8ccc9c(c8F)CN(C8CCC(=O)NC8=O)C9=O)CC7)CC6)CC5)cc4n3)c2)COC1 (centres unmarked) [Example 299, 3-{4-fluoro-5-[4-({1-[(1-{[2-(3-{3-[(4-methyl-4H-1,2,4-triazol-3-yl)methyl]oxetan-3-yl}phenyl)-4-(trifluoromethyl)-2H-indazol-6-yl]methyl}piperidin-4-yl)methyl]piperidin-4-yl}methyl)piperazin-1-yl]-1-oxo-2,3-dihydro-1H-isoindol-2-yl}piperidine-2,6-dione]
> 500 nM		Cn1cnnc1CC1(c2cccc(N3Cc4c(cc(CN5CCC6(CC5)CN(c5cccc7c5CN(C5CCC(=O)NC5=O)C7=O)C6)cc4C(F)(F)F)C3=O)c2)COC1 (centres unmarked) [Example 42, 3-[4-(7-{[2-(3-{3-[(4-methyl-4H-1,2,4-triazol-3-yl)methyl]oxetan-3-yl}phenyl)-3-oxo-7-(trifluoromethyl)-2,3-dihydro-1H-isoindol-5-yl]methyl}-2,7-diazaspiro[3.5]nonan-2-yl)-1-oxo-2,3-dihydro-1H-isoindol-2-yl]piperidine-2,6-dione]
< 5 nM	> 70%	CC1CN(C[C@H]2CC[C@H](OC3CCN(c4ccc5c(c4)n(C(C)C)c(=O)n5C4CCC(=O)NC4=O)CC3)CC2)CCN1Cc1cc2c(c(C(F)(F)F)c1)CN(c1cccc(C3(Cc4nncn4C)CC(C#N)C3)c1)C2=O (some centres unmarked) [Example 245, (1r**,3r**)-3-(3-{6-[(2-methyl-4-{[(1r*,4r*)-4-({1-[1-(2,6-dioxopiperidin-3-yl)-2-oxo-3-(propan-2-yl)-2,3-dihydro-1H-1,3-benzodiazol-5-yl]piperidin-4-yl}oxy)cyclohexyl]methyl}piperazin-1-yl)methyl]-1-oxo-4-(trifluoromethyl)-2,3-dihydro-1H-isoindol-2-yl}phenyl)-3-[(4-methyl-4H-1,2,4-triazol-3-yl)methyl]cyclobutane-1-carbonitrile]
> 500 nM		Cn1cnnc1CC1(c2cccc(-n3cc4c(C(F)(F)F)cc(CN5CCC[C@H](CN6CCN(CC7CCN(c8ccc9c(c8F)CN(C8CCC(=O)NC8=O)C9=O)CC7)CC6(C)C)C5)cc4n3)c2)COC1 (stereo partly drawn) [Example 285, 3-(5-{4-[(3,3-dimethyl-4-{[(3S)-1-{[2-(3-{3-[(4-methyl-4H-1,2,4-triazol-3-yl)methyl]oxetan-3-yl}phenyl)-4-(trifluoromethyl)-2H-indazol-6-yl]methyl}piperidin-3-yl]methyl}piperazin-1-yl)methyl]piperidin-1-yl}-4-fluoro-1-oxo-2,3-dihydro-1H-isoindol-2-yl)piperidine-2,6-dione]
< 5 nM	> 70%	Cn1cnnc1CC1(c2cccc(-n3cc4c(C(F)(F)F)cc(CN5CCC[C@H](CN6CCN(C[C@H]7CC[C@@H](OC8CCN(c9ccc%10c(c9F)CN(C9CCC(=O)NC9=O)C%10=O)CC8)CC7)CC6(C)C)C5)cc4n3)c2)COC1 (stereo partly drawn) [Example 267, 3-[4-fluoro-1-oxo-5-(4-{[(1r,4r)-4-[(3,3-dimethyl-4-{[(3S)-1-{[2-(3-{3-[(4-methyl-4H-1,2,4-triazol-3-yl)methyl]oxetan-3-yl}phenyl)-4-(trifluoromethyl)-2H-indazol-6-yl]methyl}piperidin-3-yl]methyl}piperazin-1-yl)methyl]cyclohexyl]oxy}piperidin-1-yl)-2,3-dihydro-1H-isoindol-2-yl]piperidine-2,6-dione]
5 to 50 nM	35 to 70%	COc1c(N2CCC(OC3CCC4(CC3)CN(c3cc5c(c(C(F)(F)F)c3)CN(c3cccc(C6(Cc7nncn7C)COC6)c3)C5=O)C4)CC2)ccc2c1CN(C1CCC(=O)NC1=O)C2=O (centres unmarked) [Example 149, 3-[4-methoxy-5-[4-[[2-[2-[3-[3-[(4-methyl-1,2,4-triazol-3-yl)methyl]oxetan-3-yl]phenyl]-3-oxo-7-(trifluoromethyl)isoindolin-5-yl]-2-azaspiro[3.5]nonan-7-yl]oxy]-1-piperidyl]-1-oxo-isoindolin-2-yl]piperidine-2,6-dione]
> 500 nM		Cn1cnnc1CC1(c2cccc(-n3cc4c(C(F)(F)F)cc(CN5CCC[C@@H](CN6CCC(CN7CCN(c8ccc9c(c8F)CN(C8CCC(=O)NC8=O)C9=O)CC7)CC6)C5)cc4n3)c2)COC1 (stereo partly drawn) [Example 298, 3-(4-fluoro-5-{4-[(1-{[(3S)-1-{[2-(3-{3-[(4-methyl-4H-1,2,4-triazol-3-yl)methyl]oxetan-3-yl}phenyl)-4-(trifluoromethyl)-2H-indazol-6-yl]methyl}piperidin-3-yl]methyl}piperidin-4-yl)methyl]piperazin-1-yl}-1-oxo-2,3-dihydro-1H-isoindol-2-yl)piperidine-2,6-dione]
> 500 nM		Cn1cnnc1CC1(c2cccc(N3Cc4c(cc(CN5CCC(C(C)(C)N6CCN(c7ccc8c(c7)C(=O)N(C7CCC(=O)NC7=O)C8=O)CC6)CC5)cc4C(F)(F)F)C3=O)c2)COC1 (centres unmarked) [Example 59, 2-(2,6-dioxopiperidin-3-yl)-5-{4-[2-(1-{[2-(3-{3-[(4-methyl-4H-1,2,4-triazol-3-yl)methyl]oxetan-3-yl}phenyl)-3-oxo-7-(trifluoromethyl)-2,3-dihydro-1H-isoindol-5-yl]methyl}piperidin-4-yl)propan-2-yl]piperazin-1-yl}-2,3-dihydro-1H-isoindole-1,3-dione]
< 5 nM	35 to 70%	CCn1cnnc1CC1(c2cccc(N3Cc4c(cc(CN5CCN(C[C@H]6CC[C@H](OC7CCN(c8ccc9c(n8)C(C)N(C8CCC(=O)NC8=O)C9=O)CC7)CC6)CC5)cc4C(F)(F)F)C3=O)c2)COC1 (mixture of isomers) [Example 235, rac-3-[7-methyl-5-oxo-2-(4-{[(1r,4r)-4-[(4-{[2-(3-{3-[(4-ethyl-4H-1,2,4-triazol-3-yl)methyl]oxetan-3-yl}phenyl)-3-oxo-7-(trifluoromethyl)-2,3-dihydro-1H-isoindol-5-yl]methyl}piperazin-1-yl)methyl]cyclohexyl]oxy}piperidin-1-yl)-5H,6H,7H-pyrrolo[3,4-b]pyridin-6-yl]piperidine-2,6-dione]
